# Measured values reported in patent US11266643B2, “Triaryl compounds for treatment of PD-L1 diseases” (CHEMOCENTRYX, INC., priority 2019, dated 2022).
# Target: human PD-L1 (Homo sapiens (Human), UniProt Q9NZQ7)
# Assay: Enzyme-Linked Immunosorbent Assay (ELISA), PD-1/PD-L1 binding
# Details: human PD-1/PD-L1 ELISA, plates coated with human PD-L1
# Experimental: 96 Well plates were coated with […] of human PD-L1 (obtained from R&D) in PBS overnight at 4° C. The wells were then blocked with 2% BSA in PBS (W/V) with 0.05% TWEEN-20 for 1 hour at 37° C. The plates were washed 3 times with PBS/0.05% TWEEN-20 and the compounds were serial diluted (1:5) in dilution medium and added to the ELISA plates. Human PD-1 […] 0.31 μg/mL (ACRO Biosystems) were added and incubated for 1 hour at 37° C. then washed 3 times with PBS/0.05% TWEEN-20. A second block was performed with 2% BSA in PBS (W/V)/0.05% TWEEN-20 for 10 min at 37° C. and the plates were washed 3 times with PBS/0.05% TWEEN-20. Streptavidin-HRP was added for 1 hour at 37° C. then the plates were washed 3 times with PBS/0.05% TWEEN-20. TMB substrate was added and reacted for 20 min at 37° C. A stop solution (2 N aqueous H2SO4) was added. The absorbance was read at 450 nm using a micro-plate spectrophotometer.
# Using the methods described in the Examples above, the compounds in Table 2 were prepared & tested for biological activity using the ELISA method described above.
# Chain of human PD-L1 (Q9NZQ7 19-239): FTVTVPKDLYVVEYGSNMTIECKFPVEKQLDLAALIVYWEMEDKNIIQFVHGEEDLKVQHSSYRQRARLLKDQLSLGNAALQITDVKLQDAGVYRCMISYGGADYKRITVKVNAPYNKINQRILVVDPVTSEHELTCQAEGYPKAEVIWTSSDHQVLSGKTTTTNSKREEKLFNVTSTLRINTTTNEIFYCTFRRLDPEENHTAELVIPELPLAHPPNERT
row,Structure (SMILES),IC50 [nM]
1,COc1cc(-c2cccc(-c3cccc(NC(=O)c4c[nH]c(=O)n(C)c4=O)c3C)c2C)cc(F)c1CNCc1ncc[nH]1 [Example 1.119],10 to 1000
2,COc1cc(-c2cccc(-c3cccc(NC(=O)c4c[nH]c(=O)n(C)c4=O)c3C)c2C)cc(F)c1CNCc1noc(=O)[nH]1 [Example 1.120],10 to 1000
3,COc1cc(-c2cccc(-c3cccc(NC(=O)c4cn(C)c(=O)n(C)c4=O)c3C)c2C)cc(F)c1CNC1CC(=O)NC1=O (stereo not drawn) [Example 1.121],10 to 1000
4,COc1cc(-c2cccc(-c3cccc(Nc4nccc5nccnc45)c3C)c2C)cc(F)c1CNC1CCOCC1 [Example 1.123],< 10
5,COc1cc(-c2cccc(-c3cccc(Nc4nccc5nccnc45)c3C)c2C)cc(F)c1CN[C@H]1CCNC1=O [Example 1.125],10 to 1000
6,COc1cc(-c2cccc(-c3cccc(NC(=O)c4cn(C)c(=O)n(C)c4=O)c3C)c2C)cc(F)c1CN(C)[C@H]1CNC(=O)C1 [Example 1.126],10 to 1000
7,COc1cc(-c2cccc(-c3cccc(NC(=O)c4cn(C)c(=O)n(C)c4=O)c3C)c2C)cc(F)c1CN[C@H]1CNC(=O)C1 [Example 1.127],< 10
8,COc1cc(-c2cccc(-c3cccc(NC(=O)c4cn(C)c(=O)n(C)c4=O)c3C)c2C)cc(F)c1CN[C@H]1CCC[C@@H]1O [Example 1.129],< 10
9,COc1cc(-c2cccc(-c3cccc(NC(=O)c4c[nH]c(=O)n(C)c4=O)c3C)c2C)cc(F)c1CNCCN1CCCC1=O [Example 1.131],< 10
10,COc1cc(-c2cccc(-c3cccc(NC(=O)c4cn(C)c(=O)n(C)c4=O)c3C)c2C)cc(F)c1CNC(C)(C)CO [Example 1.133],< 10
11,COc1cc(-c2cccc(-c3cccc(NC(=O)c4c[nH]c(=O)n(C)c4=O)c3C)c2C)cc(F)c1CN[C@H]1CCNC1=O [Example 1.135],10 to 1000
12,COc1cc(-c2cccc(-c3cccc(NC(=O)c4cn(C)c(=O)n(C)c4=O)c3C)c2C)cc(F)c1CN[C@@H]1CCC[C@H]1O [Example 1.137],< 10
13,COc1cc(-c2cccc(-c3cccc(NC(=O)c4c[nH]c(=O)n(C)c4=O)c3C)c2C)cc(F)c1CN[C@@H]1CCNC1=O [Example 1.138],10 to 1000
14,COc1cc(-c2cccc(-c3cccc(NC(=O)c4cncn(C)c4=O)c3C)c2C)cc(F)c1CNCC1(O)CC1 [Example 1.140],< 10
15,COc1cc(-c2cccc(-c3cccc(NC(=O)c4cccn(C)c4=O)c3C)c2C)cc(F)c1CN[C@H]1CNC(=O)C1 [Example 1.142],< 10
16,COc1cc(-c2cccc(-c3cccc(NC(=O)c4c[nH]c(=O)n(C)c4=O)c3C)c2C)cc(F)c1CN[C@H]1CNC(=O)C1 [Example 1.143],< 10
17,COc1cc(-c2cccc(-c3cccc(Nc4nccc5nccnc45)c3C)c2C)cc(F)c1CN[C@H]1CCC[C@@H]1O [Example 1.144],< 10

row,Structure (SMILES),IC50 [nM]
1,COc1cc(-c2cccc(-c3cccc(NC(=O)c4cn(C)c(=O)n(C)c4=O)c3C)c2C)cc(F)c1CN[C@H]1CCC[C@H]1O [Example 1.147],< 10
2,COc1cc(-c2cccc(-c3cccc(NC(=O)c4cn(C)c(=O)n(C)c4=O)c3C)c2C)cc(F)c1CN(C)[C@@H]1CNC(=O)C1 [Example 1.148],< 10
3,COc1cc(-c2cccc(-c3cccc(NC(=O)c4cn(C)c(=O)n(C)c4=O)c3C)c2C)cc(F)c1CNCc1c[nH]c(=O)[nH]c1=O [Example 1.149],< 10
4,COc1cc(-c2cccc(-c3cccc(NC(=O)c4cccn(C)c4=O)c3C)c2C)cc(F)c1CNC(C)(C)CO [Example 1.150],< 10
5,COc1cc(-c2cccc(-c3cccc(NC(=O)c4cncn(C)c4=O)c3C)c2C)cc(F)c1CNC(C)(C)CO [Example 1.151],< 10
6,COc1cc(-c2cccc(-c3cccc(Nc4nccc5nccnc45)c3C)c2C)cc(F)c1CN[C@H]1CNC(=O)C1 [Example 1.153],< 10
7,COc1cc(-c2cccc(-c3cccc(NC(=O)c4cncn(C)c4=O)c3C)c2C)cc(F)c1CN[C@H]1CNC(=O)C1 [Example 1.154],< 10
8,COc1cc(-c2cccc(-c3cccc(NC(=O)c4cn(C)c(=O)n(C)c4=O)c3C)c2C)cc(F)c1CNC[C@H]1CCC(=O)N1 [Example 1.155],< 10
9,COc1cc(-c2cccc(-c3cccc(NC(=O)c4cccn(C)c4=O)c3C)c2C)cc(F)c1CNC[C@@H]1CCC(=O)N1C [Example 1.156],< 10
10,COc1cc(-c2cccc(-c3cccc(NC(=O)c4cncn(C)c4=O)c3C)c2C)cc(F)c1CN[C@@H]1CCC[C@H]1O [Example 1.160],< 10
11,COc1cc(-c2cccc(-c3cccc(NC(=O)c4cncn(C)c4=O)c3C)c2C)cc(F)c1CN[C@H]1CCC[C@H]1O [Example 1.161],< 10
12,COc1cc(-c2cccc(-c3cccc(NC(=O)c4cn(C)c(=O)n(C)c4=O)c3C)c2C)cc(F)c1CNC1CCOC1 (stereo not drawn) [Example 1.162],< 10
13,COc1cc(-c2cccc(-c3cccc(NC(=O)c4cccn(C)c4=O)c3C)c2C)cc(F)c1CN(C)CCO [Example 1.164],< 10
14,COc1cc(-c2cccc(-c3cccc(NC(=O)c4cccn(C)c4=O)c3C)c2C)cc(F)c1CNC1COC1 [Example 1.169],10 to 1000
15,COc1cc(-c2cccc(-c3cccc(NC(=O)c4cncn(C)c4=O)c3C)c2C)cc(F)c1CN[C@H]1CCC[C@@H]1O [Example 1.172],< 10
16,COc1cc(-c2cccc(-c3cccc(NC(=O)c4cn(C)c(=O)n(C)c4=O)c3C)c2C)cc(F)c1CNCCO [Example 1.179],< 10

# Second part, the molecule after the results:
row,IC50 [nM],Structure (SMILES)
1,< 10,COc1cc(-c2cccc(-c3cccc(NC(=O)c4cn(C)c(=O)n(C)c4=O)c3C)c2C)cc(F)c1CNCCN1CCCC1=O [Example 1.118]
2,< 10,COc1cc(-c2cccc(-c3cccc(NC(=O)c4c[nH]c(=O)n(C)c4=O)c3C)c2C)cc(F)c1CNCCC(N)=O [Example 1.128]
3,10 to 1000,COc1cc(-c2cccc(-c3cccc(Nc4nccc5nccnc45)c3C)c2C)cc(F)c1CN[C@@H]1CCNC1=O [Example 1.130]
4,10 to 1000,COc1cc(-c2cccc(-c3cccc(NC(=O)c4cncn(C)c4=O)c3C)c2C)cc(F)c1CN(C)C[C@H]1CCC(=O)N1 [Example 1.132]
5,< 10,COc1cc(-c2cccc(-c3cccc(NC(=O)c4c[nH]c(=O)n(C)c4=O)c3C)c2C)cc(F)c1CNCc1ccn[nH]1 [Example 1.134]
6,< 10,COc1cc(-c2cccc(-c3cccc(NC(=O)c4cncn(C)c4=O)c3C)c2C)cc(F)c1CNC1CCOC1 (stereo not drawn) [Example 1.139]
7,< 10,COc1cc(-c2cccc(-c3cccc(NC(=O)c4c[nH]c(=O)n(C)c4=O)c3C)c2C)cc(F)c1CNCCC1CCC(=O)N1 (stereo not drawn) [Example 1.141]
8,< 10,COc1cc(-c2cccc(-c3cccc(NC(=O)c4cccn(C)c4=O)c3C)c2C)cc(F)c1CNC[C@H]1CCC(=O)N1 [Example 1.145]
9,< 10,COc1cc(-c2cccc(-c3cccc(NC(=O)c4cn(C)c(=O)n(C)c4=O)c3C)c2C)cc(F)c1CNCc1cn(C)c(=O)n(C)c1=O [Example 1.146]
10,10 to 1000,COc1cc(-c2cccc(-c3cccc(NC(=O)c4cn(C)c(=O)n(C)c4=O)c3C)c2C)cc(F)c1CN(C)C[C@H]1CCC(=O)N1 [Example 1.152]
11,< 10,COc1cc(-c2cccc(-c3cccc(NC(=O)c4cccn(C)c4=O)c3C)c2C)cc(F)c1CNC[C@@H]1CCC(=O)N1 [Example 1.157]
12,< 10,COc1cc(-c2cccc(-c3cccc(NC(=O)c4c[nH]c(=O)n(C)c4=O)c3C)c2C)cc(F)c1CNC[C@H]1CCC(=O)N1 [Example 1.158]
13,< 10,COc1cc(-c2cccc(-c3cccc(Nc4nccc5nccnc45)c3C)c2C)cc(F)c1CNC[C@H]1CCC(=O)N1 [Example 1.159]
14,< 10,COc1cc(-c2cccc(-c3cccc(NC(=O)c4cccn(C)c4=O)c3C)c2C)cc(F)c1CN[C@@H]1CCC[C@@H]1O [Example 1.165]
15,10 to 1000,COc1cc(-c2cccc(-c3cccc(NC(=O)c4cncn(C)c4=O)c3C)c2C)cc(F)c1CN(C)CC(C)(C)O [Example 1.166]
16,< 10,COc1cc(-c2cccc(-c3cccc(NC(=O)c4cccn(C)c4=O)c3C)c2C)cc(F)c1CN(C)C[C@@H]1CCC(=O)N1 [Example 1.167]
17,< 10,COc1cc(-c2cccc(-c3cccc(NC(=O)c4cccn(C)c4=O)c3C)c2C)cc(F)c1CNC1CCOC1 (stereo not drawn) [Example 1.168]
18,< 10,COc1cc(-c2cccc(-c3cccc(NC(=O)c4cccn(C)c4=O)c3C)c2C)cc(F)c1CNC(C)C [Example 1.170]
19,< 10,COc1cc(-c2cccc(-c3cccc(NC(=O)c4cccn(C)c4=O)c3C)c2C)cc(F)c1CN[C@@H]1CNC(=O)C1 [Example 1.171]
20,10 to 1000,COc1cc(-c2cccc(-c3cccc(Nc4nccc5c4NCCN5)c3C)c2C)cc(F)c1CN[C@@H]1CCC[C@@H]1O [Example 1.173]
21,< 10,COc1cc(-c2cccc(-c3cccc(NC(=O)c4cn(C)c(=O)n(C)c4=O)c3C)c2C)cc(F)c1CN(C)C[C@@H]1CCC(=O)N1 [Example 1.175]
22,< 10,COc1cc(-c2cccc(-c3cccc(NC(=O)c4cncn(C)c4=O)c3C)c2C)cc(F)c1CN(C)CCO [Example 1.176]
23,< 10,COc1cc(-c2cccc(-c3cccc(NC(=O)c4cn(C)c(=O)n(C)c4=O)c3C)c2C)cc(F)c1CNC1COC1 [Example 1.177]
24,< 10,COc1cc(-c2cccc(-c3cccc(NC(=O)c4cn(C)c(=O)n(C)c4=O)c3C)c2C)cc(F)c1CN[C@@H]1CCC[C@@H]1O [Example 1.178]
